Structures are written as SMILES.

In one experiment the target is S1P5 receptor (Homo sapiens, UniProt Q9H228). Description: S1P5 GTP[γ-35S] binding assay, membranes of CHO cells. It counts as biochemical. Conditions: agonistic activity in vitro; read-out: S1P-5 GTPyS/EC50. Here is the method:
(§1) A. In Vitro: GPCR Activation Assay Measuring GTP [γ-^35S] Binding to Membranes Prepared from CHO Cells Expressing Human EDG Receptors
(§2) Serial dilutions of compounds (stock in 10 mM DMSO) are prepared by first diluting the compounds in DMSO (1:10) followed by a 1:20 dilution into assay buffer (50 mM HEPES, pH 7.4, 5 mM MgCl2, 1 mM CaCl2, 1% fatty acid-free BSA). S1P (1 mM in DMSO/HCl) is diluted directly into assay buffer. The desired amount of membranes (1-5 μg/well) is diluted with assay buffer containing 10 μM GDP, 25 μg/mL Saponin and 5 mg/mL WGA-SPA beads. 9 μL of pre-diluted compound is placed into the bottom of a 96-well deep-well plate. 440 μL of the membrane-WGA-SPA bead slurry is added and the plate stirred for 15 minutes. Then twice 210 μL are transferred each into a 96-well Optiplate containing 15 μL GTP [γ-^35S] (4 nM in assay buffer). After incubation at room temperature for 120 minutes under constant shaking the plates are centrifuged for 10 minutes at 1000 g to pellet the membrane-SPA beads slurry. Then the plates are measured in a TOPcount NXT. Eight different concentrations of compound are used to generate a concentration response curve (using two data points per concentration) and the corresponding EC50 value using the curve-fitting tool of GraphPad Prism.
For each membrane preparation, titration experiments are first run with S1P control to determine the optimal amount of membranes to be added per assay well.

Experiment [1] addresses T1, human S1P1 (EDG-1) receptor (Homo sapiens, UniProt P21453).
T1 construct: c-myc (N); expressed in transfected cells
In words: S1P1 (EDG-1) GTP[γ-35S] binding assay, membranes of CHO cells. It counts as biochemical. Conditions: agonistic activity in vitro; read-out: S1P-1 GTPyS/EC50. Here is the method: as §1
S1P1 (EDG-1) GTP [γ-^35S] assay: Homogenized membranes are prepared from CHO cell clones stably expressing a human EDG-1 N-terminal c-myc tag. Cells are grown in large culture dishes (500 cm^2) to a confluence between 80 and 90%. The culture medium is removed and 20 mL ice-cold buffer A (10 mM HEPES, pH 7.4, 10 mM EDTA, complete protease inhibitor cocktail [1 tablet/50 mL]) added. The cells are harvested by scraping and the cell suspension centrifuged at 750×g for 10 min at 4° C. The pellet is resuspended in 10 mL ice-cold buffer B (20 mM HEPES, pH 7.4, 100 mM NaCl, 10 mM MgCl2, 1 mM EDTA). The cell suspension is homogenized on ice, using a Polytron homogenizer at 25000 rpm at three intervals of 20 seconds each. Then the homogenate is centrifuged at 26900×g for 30 min at 4° C. and the membrane protein pellet resuspended by vortexing in cold buffer B. The protein concentration is determined using the Bio Rad Protein Assay and human IgG as standard. The volume of the membrane protein suspension is adjusted to a final concentration of about 2 mg protein/mL. The solution is then once again homogenized (Polytron) on ice at 25000 rpm for 20 seconds before being aliquoted and stored at −80° C.
as §2

A further experiment deals with circulating lymphocytes. In words: Blood lymphocyte depletion in rats. It counts as in vivo, Lewis rats. Conditions: for recovery of lymphocyte counts back to baseline: within 48 hours. The protocol: Measurement of circulating lymphocytes: Lewis rats (male, 6-12 weeks old) are orally administered with 0.1 to 5 mg/kg of compound (4 ml/kg vehicle, e.g. in max. 2% DMSO/max. 2% PEG200/water or 0.5% methyl cellulose). A vehicle group is included as negative control.
Blood is collected from the sublingual vein at baseline (0 h) and 2, 6, 24 and 48 hours after administration under short isoflurane anesthesia. Whole blood samples are subjected to hematology analysis. Peripheral lymphocyte counts are determined using an automated analyzer. Two to four rats are used to assess the lymphocyte counts of each dose.

Experiment [2] concerns experimental autoimmune uveitis (EAU). In words: S-antigen-induced experimental autoimmune uveitis (EAU). It counts as in vivo, Lewis rats. Conditions: 3 and 10 mg/kg bid p.o., day 7 to day 18 post-immunization.
In experiment [3] the test system is experimental autoimmune encephalomyelitis (EAE). In words: Acute EAE model. It counts as in vivo, Lewis rats. Conditions: 10 mg/kg b.i.d., oral gavage, days 0-13.
The test system is the same in experiment [4]. In words: Chronic-progressive EAE model (therapeutic treatment). It counts as in vivo, DA rat. Conditions: therapeutic treatment after peak of disease; from day 15 post-immunization (after 4 days of treatment) until end of experiment; scale 0-5.

T1 sequence (P21453 whole entry): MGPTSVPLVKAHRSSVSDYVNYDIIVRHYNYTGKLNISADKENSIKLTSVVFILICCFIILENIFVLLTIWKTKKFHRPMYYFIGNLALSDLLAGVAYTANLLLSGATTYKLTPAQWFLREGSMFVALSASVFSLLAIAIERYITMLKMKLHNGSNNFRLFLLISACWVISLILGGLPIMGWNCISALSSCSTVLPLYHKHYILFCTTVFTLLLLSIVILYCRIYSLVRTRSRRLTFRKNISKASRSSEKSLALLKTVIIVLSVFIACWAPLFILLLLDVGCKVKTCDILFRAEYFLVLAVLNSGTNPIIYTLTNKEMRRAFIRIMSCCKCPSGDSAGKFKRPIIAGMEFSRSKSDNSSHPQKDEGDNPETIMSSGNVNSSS
S1P5 receptor, sequence (Q9H228 whole entry): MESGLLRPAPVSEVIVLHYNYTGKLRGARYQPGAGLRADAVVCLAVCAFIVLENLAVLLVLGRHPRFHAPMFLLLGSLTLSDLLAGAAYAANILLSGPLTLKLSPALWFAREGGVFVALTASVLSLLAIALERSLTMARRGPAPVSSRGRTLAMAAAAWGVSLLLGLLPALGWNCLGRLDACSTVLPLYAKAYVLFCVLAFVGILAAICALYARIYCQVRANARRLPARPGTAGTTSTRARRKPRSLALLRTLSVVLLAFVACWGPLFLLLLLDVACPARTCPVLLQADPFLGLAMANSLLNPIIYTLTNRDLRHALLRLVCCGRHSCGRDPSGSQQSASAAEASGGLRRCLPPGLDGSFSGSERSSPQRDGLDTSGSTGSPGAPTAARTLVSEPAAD

In the case of `CCOc1ccc(-c2nc(-c3ccc(C4(N)COC4)cc3)no2)cc1C#N` [Example 4], the results for the EC50 (at S1P5 receptor; in experiment [1]) were 300 nM and 17 nM, respectively.
In the same order, the values of `CCOc1ccc(-c2nc(-c3ccc(C4(O)COC4)cc3)no2)cc1C#N` [Example 6, 5-{3-[4-(3-Hydroxy-oxetan-3-yl)-phenyl]-[1,2,4]oxadiazol-5-yl}-2-ethoxy-benzonitrile] are 280 nM and 29 nM.
`CC(C)Oc1ccc(-c2nc(-c3ccc(C4(O)COC4)cc3)no2)cc1C#N` [Example 2]: the EC50 on S1P5 receptor was found to be 30 nM; in experiment [1], 6 nM.
`CC(=O)c1cc(-c2nc(-c3ccc(C4(N)COC4)cc3)no2)ccc1OC(C)C` [Example 3]: the EC50 at S1P5 receptor came to 180 nM; in experiment [1], 13 nM.
For `CC(C)Oc1ccc(-c2nc(-c3ccc(C4(N)COC4)cc3)no2)cc1C#N` [Example 1, 5-{3-[4-(3-Amino-oxetan-3-yl)-phenyl]-[1,2,4]oxadiazol-5-yl}-2-iso-propoxy-benzonitrile], the results for the “recovery of lymphocyte counts back to baseline” value in the experiment with circulating lymphocytes (1 mg/kg p.o.) and in the experiment on circulating lymphocytes (5 mg/kg p.o.) were “fully” and “partially recover back to baseline”, respectively. In addition, the peripheral lymphocyte counts entry in the experiment with circulating lymphocytes (0.1 to 5 mg/kg p.o., Lewis rats) is “dose-dependent reduction”. In the experiment with circulating lymphocytes (1 or 5 mg/kg p.o., Lewis rats), the “time of maximal reduction of peripheral lymphocyte counts post-administration” value turned out to be 6 h. The EC50 on S1P5 receptor was 90 nM; in experiment [1] it was 10 nM. Also, the “protection from autoimmune uveitis” value in experiment [2] is “dose-dependent protection from autoimmune uveitis”. Also, the “effect on disease symptoms in acute EAE” value in experiment [3] was “prevention of disease symptoms”. Also, in experiment [4], the “clinical scores in chronic-progressive EAE” value is recorded as less than 0.5.
Regarding `CC(=O)c1cc(-c2nc(-c3ccc(C4(O)COC4)cc3)no2)ccc1OC(C)C` [Example 5], the EC50 turned out to be 310 nM at S1P5 receptor and 25 nM in experiment [1].

The values above are taken from patent US20100261766A1, “Phenyl-Oxetanyl-Derivatives” (priority 2007, published 2010).
